Literature values, collected in patent US20250369985A1, “METHOD FOR DETERMINING THE THERAPEUTIC REGIMEN FOR AN INDIVIDUAL AND ITS USE” (MOSAIQUES DIAGNOSTICS AND THERAPEUTICS AG, priority 2022, published 2025).
Like-named read-outs stand apart in the source and are kept apart here.

System: urinary proteins/peptides (71 biomarkers of CD71 classifier)

Measured: f (fold-change of the abundance)

Cc1ccc([C@@H]2O[C@H](CO)[C@@H](O)[C@H](O)[C@H]2O)cc1Cc1ccc(-c2ccc(F)cc2)s1 [drug C]
1.84: peptide 99907807 (Seq. ID No. 18)
0.83: peptide 99916615 (Seq. ID No. 55)
1.33: peptide 99911559 (Seq. ID No. 32)
1.55: peptide 99914935 (Seq. ID No. 47)
1.71: peptide 99910883 (Seq. ID No. 28)
0.63: peptide 99917690 (Seq. ID No. 65)
1.86: peptide 99905274 (Seq. ID No. 11) | peptide 99913322 (Seq. ID No. 40)
0.64: peptide 99914445 (Seq. ID No. 43)
2.01: peptide 99917825 (Seq. ID No. 66)
1: peptide 99900220 (Seq. ID No. 1) | peptide 99900467 (Seq. ID No. 2) | peptide 99901399 (Seq. ID No. 3) | peptide 99902592 (Seq. ID No. 4) | peptide 99903025 (Seq. ID No. 5) | peptide 99904666 (Seq. ID No. 7) | peptide 99904862 (Seq. ID No. 8) | peptide 99905044 (Seq. ID No. 9) | peptide 99905259 (Seq. ID No. 10) | peptide 99905379 (Seq. ID No. 12) | peptide 99905423 (Seq. ID No. 13) | peptide 99905509 (Seq. ID No. 14) | peptide 99905551 (Seq. ID No. 15) | peptide 99906176 (Seq. ID No. 16) | peptide 99907275 (Seq. ID No. 17) | peptide 99908755 (Seq. ID No. 19) | peptide 99908795 (Seq. ID No. 20) | peptide 99908916 (Seq. ID No. 21) | peptide 99909059 (Seq. ID No. 22) | peptide 99910002 (Seq. ID No. 23) | peptide 99910032 (Seq. ID No. 24) | peptide 99910407 (Seq. ID No. 25) | peptide 99910483 (Seq. ID No. 26) | peptide 99910554 (Seq. ID No. 27) | peptide 99911002 (Seq. ID No. 29) | peptide 99911193 (Seq. ID No. 30) | peptide 99911415 (Seq. ID No. 31) | peptide 99911777 (Seq. ID No. 33) | peptide 99912101 (Seq. ID No. 34) | peptide 99912211 (Seq. ID No. 35) | peptide 99912366 (Seq. ID No. 36) | peptide 99912411 (Seq. ID No. 37) | peptide 99912661 (Seq. ID No. 38) | peptide 99913200 (Seq. ID No. 39) | peptide 99913825 (Seq. ID No. 41) | peptide 99914211 (Seq. ID No. 42) | peptide 99914876 (Seq. ID No. 44) | peptide 99914887 (Seq. ID No. 45) | peptide 99914893 (Seq. ID No. 46) | peptide 99915015 (Seq. ID No. 48) | peptide 99915755 (Seq. ID No. 49) | peptide 99915778 (Seq. ID No. 50) | peptide 99915883 (Seq. ID No. 51) | peptide 99916170 (Seq. ID No. 52) | peptide 99916177 (Seq. ID No. 53) | peptide 99916966 (Seq. ID No. 56) | peptide 99917047 (Seq. ID No. 57) | peptide 99917221 (Seq. ID No. 58) | peptide 99917280 (Seq. ID No. 59) | peptide 99917288 (Seq. ID No. 60) | peptide 99917419 (Seq. ID No. 61) | peptide 99917505 (Seq. ID No. 62) | peptide 99917596 (Seq. ID No. 63) | peptide 99917626 (Seq. ID No. 64) | peptide 99917890 (Seq. ID No. 67) | peptide 99917947 (Seq. ID No. 68) | peptide 99918831 (Seq. ID No. 69) | peptide 99918906 (Seq. ID No. 70) | peptide 99918909 (Seq. ID No. 71)
1.22: peptide 99904405 (Seq. ID No. 6)
0.79: peptide 99916611 (Seq. ID No. 54)
